From DBAASP
In brackets after ≈: the same amount, converted by molar mass. One block for each compound: values may come before it.

Columns and labels:
Assay in all cases: ≥ marks a high value that may be exact or a test limit, other limits are often not marked, values filed in µg/mL are converted to µM
[1] = tested on: Candida albicans NCTC 1467
[2] = tested on: Escherichia coli NCTC 10418
[3] = tested on: Klebsiella pneumoniae ATCC 43816
[4] = tested on: Pseudomonas aeruginosa ATCC 27853
[5] = tested on: Staphylococcus aureus NCTC 10788
[6] = tested on: Staphylococcus aureus NCTC 12493
[7] = tested on: Bacillus pumilus
[8] = tested on: Candida boidinii
[9] = tested on: Escherichia coli
[10] = tested on: Psychrobacter sp. TAD 1
[11] = tested on: Escherichia coli ATCC 11229
[12] = tested on: Escherichia coli ATCC 35218
[13] = tested on: Klebsiella pneumoniae ATCC 13866
[14] = tested on: Staphylococcus aureus ATCC 25923
[15] = tested on: Staphylococcus aureus ATCC 29213
[16] = tested on: Staphylococcus aureus ATCC 33591
[17] = tested on: Agrobacterium tumefaciens DSM 3129
[18] = tested on: Bacillus megaterium QMB 1551
[19] = tested on: Bacillus subtilis NRRL B-237
[20] = tested on: Bacillus thuringiensis serovar tenebrionis DSM 2803
[21] = tested on: Brenneria salicis NCPPB 2530
[22] = tested on: Clavibacter michiganensis subsp. insidiosus NCPPB 1109
[23] = tested on: Escherichia coli NCTC 9001
[24] = tested on: Paenibacillus alvei LMG 6922
[25] = tested on: Pseudomonas syringae pv. tomato NCPPB 1106
[26] = tested on: Salmonella enterica subsp. enterica serovar Newport
[27] = tested on: Salmonella typhimurium ATCC 23565
[28] = tested on: Serratia marcescens ATCC 17991
[29] = tested on: Shigella flexneri CP87
[30] = tested on: Sinorhizobium meliloti ZB314
[31] = tested on: Acinetobacter baumannii ATCC 17978
[32] = tested on: Escherichia coli ATCC 8739
[33] = tested on: Staphylococcus aureus HNCMO 112011
[34] = tested on: Bacillus subtilis DSM 347
[35] = tested on: Escherichia coli DSM 1116
[36] = tested on: Franconibacter helveticus DSM 18390
[37] = tested on: Staphylococcus xylosus DSM 20267
[38] = tested on: Aspergillus oryzae NBRC 100959
[39] = tested on: Candida viswanathii NBRC 10321
[40] = tested on: Escherichia coli NBRC 3972
[41] = tested on: Micrococcus luteus NBRC 3333
[42] = tested on: Staphylococcus epidermidis NBRC 12993

Structure (SMILES): CC[C@H](C)[C@H](NC(=O)CNC(=O)[C@H](CCCN=C(N)N)NC(=O)[C@H](CC(C)C)NC(=O)[C@H](CC(C)C)NC(=O)[C@H](Cc1cnc[nH]1)NC(=O)CNC(=O)[C@H](Cc1ccccc1)NC(=O)[C@@H](N)Cc1ccccc1)C(=O)N[C@H](C(=O)N[C@@H](CO)C(=O)N[C@H](C(=O)NCC(=O)N[C@@H](CCCCN)C(=O)N[C@@H](Cc1cnc[nH]1)C(=O)N[C@H](C(=O)N[C@@H](Cc1cnc[nH]1)C(=O)NCC(=O)N[C@@H](CC(C)C)C(=O)N[C@H](C(=O)N[C@H](C(=O)NCC(=O)O)[C@@H](C)O)[C@@H](C)CC)[C@@H](C)CC)C(C)C)C(C)C [FFGHLLRGIVSVGKHIHGLITG]
MIC [7]: 10 µM (≈ 23.6 µg/mL)
MIC [8]: ≥ 50 µM
MIC [9]: 25 µM (≈ 59 µg/mL)
MIC [10]: 2.5 µM (≈ 5.9 µg/mL)

Structure (SMILES): CC[C@H](C)[C@H](NC(=O)[C@H](Cc1ccc(O)cc1)NC(=O)[C@@H](NC(=O)[C@@H]1CCCN1C(=O)[C@H](CCCN=C(N)N)NC(=O)[C@H](CC(N)=O)NC(=O)[C@H](CC(N)=O)NC(=O)CN)C(C)C)C(=O)N1CCC[C@H]1C(=O)N[C@@H](CCC(N)=O)C(=O)N1CCC[C@H]1C(=O)N[C@@H](CCCN=C(N)N)C(=O)N1CCC[C@H]1C(=O)N1CCC[C@H]1C(=O)N[C@@H](Cc1cnc[nH]1)C(=O)N1CCC[C@H]1C(=O)N[C@@H](CCCN=C(N)N)C(=O)O [GNNRPVYIPQPRPPHPR]
MIC [17]: 0.1 µM (≈ 0.2 µg/mL)
MIC [18]: ≥ 75.2 µM
MIC [19]: ≥ 100 µM
MIC [20]: ≥ 100 µM
MIC [21]: 0.01 µM (≈ 0.02 µg/mL)
MIC [22]: 25.1 µM (≈ 50 µg/mL)
MIC [23]: 0.0501 µM (≈ 0.1 µg/mL)
MIC [24]: ≥ 100 µM
MIC [25]: 0.1 µM (≈ 0.2 µg/mL)
MIC [26]: 0.1 µM (≈ 0.2 µg/mL)
MIC [27]: 0.0501 µM (≈ 0.1 µg/mL)
MIC [28]: ≥ 100 µM
MIC [29]: 0.0501 µM (≈ 0.1 µg/mL)
MIC [30]: 0.0501 µM (≈ 0.1 µg/mL)

Structure (SMILES): CC[C@H](C)[C@H](NC(=O)[C@H](CCCCN)NC(=O)[C@H](CCCCN)NC(=O)[C@H](C)NC(=O)[C@H](CC(C)C)NC(=O)[C@H](C)NC(=O)[C@H](C)NC(=O)[C@H](CC(C)C)NC(=O)[C@H](C)NC(=O)[C@@H](N)CCCCN)C(=O)N[C@@H](CC(C)C)C(=O)O [KALAALAKKIL]
MIC [31]: 25 µM (≈ 28.5 µg/mL)
MIC [32]: 25 µM (≈ 28.5 µg/mL)
MIC [33]: 25 µM (≈ 28.5 µg/mL)

Structure (SMILES): CSCC[C@H](NC(=O)[C@H](CCCCN)NC(=O)[C@H](Cc1c[nH]c2ccccc12)NC(=O)[C@H](CCCN=C(N)N)NC(=O)[C@H](CCCCN)NC(=O)[C@H](Cc1ccccc1)NC(=O)[C@H](CC(C)C)NC(=O)[C@H](CCCN=C(N)N)NC(=O)[C@H](CCCCN)NC(=O)[C@@H](NC(=O)[C@H](CCCCN)NC(=O)[C@@H](N)CCCN=C(N)N)C(C)C)C(=O)O [RKVKRLFKRWKM]
MIC [38]: ≥ 59.7 µM
MIC [39]: ≥ 59.7 µM
MIC [40]: ≥ 477 µM
MIC [41]: ≥ 59.7 µM
MIC [42]: 29.8 µM (≈ 50 µg/mL)

Continued, values first:

MIC [1]: 16 µM (≈ 37.1 µg/mL)
MIC [2]: 16 µM (≈ 37.1 µg/mL)
MIC [3]: ≥ 64 µM
MIC [4]: 64 µM (≈ 148 µg/mL)
MIC [5]: 4 µM (≈ 9.28 µg/mL)
MIC [6]: 8 µM (≈ 18.6 µg/mL)
Structure (SMILES): CC[C@H](C)[C@@H]1NC(=O)[C@H](CC(C)C)NC(=O)[C@@H](NC(=O)[C@H](Cc2ccccc2)NC(=O)[C@H](CC(C)C)NC(=O)[C@H](CCCCN)NC(=O)[C@@H]2CCCN2C(=O)[C@H](CC(C)C)NC(=O)[C@@H](NC(=O)[C@H](CCCCN)NC(=O)[C@@H](NC(=O)[C@@H](NC(=O)[C@H](C)NC(=O)CNC(=O)[C@H](CC(C)C)NC(=O)[C@H](C)NC(=O)[C@@H](N)Cc2ccccc2)C(C)C)[C@@H](C)O)C(C)C)CSSC[C@@H](C(=O)O)NC(=O)[C@H](CCCCN)NC(=O)[C@H](CCCN=C(N)N)NC(=O)[C@H]([C@@H](C)O)NC1=O [FALGAVTKVLPKLFCLITRKC]

MIC [11]: ≥ 64 µM
MIC [12]: ≥ 64 µM
MIC [13]: 32 µM (≈ 64 µg/mL)
MIC [4]: 8 µM (≈ 16 µg/mL)
MIC [14]: 32 µM (≈ 64 µg/mL)
MIC [15]: 32 µM (≈ 64 µg/mL)
MIC [16]: 16 µM (≈ 32 µg/mL)
Structure (SMILES): CSCC[C@H](NC(=O)[C@H](CC(C)C)NC(=O)CN)C(=O)N[C@@H](CCCCN)C(=O)N[C@@H](CC(C)C)C(=O)N[C@@H](CC(C)C)C(=O)N[C@@H](CCCN=C(N)N)C(=O)N[C@@H](CCC(=O)O)C(=O)N[C@@H](CC(C)C)C(=O)N[C@@H](CC(C)C)C(=O)N[C@@H](Cc1cnc[nH]1)C(=O)N[C@@H](CCSC)C(=O)N[C@@H](Cc1ccccc1)C(=O)N[C@@H](CO)C(=O)N[C@@H](CCCN=C(N)N)C(=O)N[C@H](C(=O)NCC(=O)O)C(C)C [GLMKLLRELLHMFSRVG]

MIC [34]: 14.6 µM (≈ 32 µg/mL)
MIC [35]: 14.6 µM (≈ 32 µg/mL)
MIC [36]: 7.31 µM (≈ 16 µg/mL)
MIC [37]: 3.65 µM (≈ 8 µg/mL)
Structure (SMILES): CC(C)C[C@H](NC(=O)[C@H](CCCCN)NC(=O)[C@H](CC(C)C)NC(=O)[C@H](CCCCN)NC(=O)[C@H](CC(C)C)NC(=O)[C@H](CCCCN)NC(=O)[C@H](CC(C)C)NC(=O)[C@H](CCCCN)NC(=O)[C@H](CC(C)C)NC(=O)[C@H](CCCCN)NC(=O)[C@H](CC(C)C)NC(=O)[C@H](CCCCN)NC(=O)[C@H](CC(C)C)NC(=O)[C@H](CCCCN)NC(=O)[C@H](CC(C)C)NC(=O)[C@H](CCCCN)NC(=O)[C@H](CC(C)C)NC(=O)[C@@H](N)CCCCN)C(N)=O [KLKLKLKLKLKLKLKLKL]
